Assay results reported in the supplement of paper PMC13380429.

What was measured:
Conditions in all cases: 72 h
[1] = system: Calu-3; assay: cell viability relative to DMSO; higher = less toxic
[2] = system: U2OS; assay: as above
[3] = system: Vero E6; assay: as above
[4] = system: HepG2; assay: as above
[5] = system: Caco-2; assay: as above
[6] = system: Calu-3; assay: drug sensitivity score (DSS) for viability; higher = more toxic; extreme values may be limits of the assay
[7] = system: U2OS; assay: as above
[8] = system: Vero E6; assay: as above
[9] = system: HepG2; assay: as above
[10] = system: Caco-2; assay: as above
[11] = system: Calu-3; assay: relative viability EC50 (midpoint between 100% and the lowest measured viability); higher = less toxic
[12] = system: U2OS; assay: as above
[13] = system: Vero E6; assay: as above
[14] = system: HepG2; assay: as above
[15] = system: Caco-2; assay: as above

SMILES	cell viability ([1]; 1 nM) [%]	cell viability ([1]; 10 nM) [%]	cell viability ([1]; 100 nM) [%]	cell viability ([1]; 1000 nM) [%]	cell viability ([1]; 10000 nM) [%]	cell viability ([2]; 1 nM) [%]	cell viability ([2]; 10 nM) [%]	cell viability ([2]; 100 nM) [%]	cell viability ([2]; 1000 nM) [%]	cell viability ([2]; 10000 nM) [%]	cell viability ([3]; 1 nM) [%]	cell viability ([3]; 10 nM) [%]	cell viability ([3]; 100 nM) [%]	cell viability ([3]; 1000 nM) [%]	cell viability ([3]; 10000 nM) [%]	cell viability ([4]; 1 nM) [%]	cell viability ([4]; 10 nM) [%]	cell viability ([4]; 100 nM) [%]	cell viability ([4]; 1000 nM) [%]	cell viability ([4]; 10000 nM) [%]	cell viability ([5]; 1 nM) [%]	cell viability ([5]; 10 nM) [%]	cell viability ([5]; 100 nM) [%]	cell viability ([5]; 1000 nM) [%]	cell viability ([5]; 10000 nM) [%]	drug sensitivity score [6]	drug sensitivity score [7]	drug sensitivity score [8]	drug sensitivity score [9]	drug sensitivity score [10]	relative viability EC50 [11] [µM]	relative viability EC50 [12] [µM]	relative viability EC50 [13] [µM]	relative viability EC50 [14] [µM]	relative viability EC50 [15] [µM]
CCCCCCCCCCCC1=C(O)C(=O)C=C(O)C1=O [embelin]	106	98.6	110	96.2	104	107	95.1	101	94.7	95.3	92.1	94.3	97.8	105	97	95.9	94.4	98.9	98.6	102	98.2	97.2	98.5	104	92.2	0	0	0	0	0	> 10	> 10	> 10	> 10	> 10
CC1(C)[C@@H](O)CC[C@]2(C)[C@H]3C(=O)C=C4[C@@H]5C[C@@](C)(C(=O)O)CC[C@]5(C)CC[C@@]4(C)[C@]3(C)CC[C@@H]12 [enoxolone]	110	106	98.6	105	99.1	99.4	93.2	95.4	99.6	98.6	93.1	99.8	95.2	103	92.5	75.2	90.9	87	95.9	96	96.6	101	97	87.2	96.3	0	0	0	0	0	> 10	> 10	> 10	> 10	> 10
CCOC(=O)c1cnc2c(cnn2CC)c1NN=C(C)C [etazolate]	102	101	96.2	94.3	90.9	101	94.7	97.1	96.6	97.7	96.9	93.5	96.5	98.9	85.1	94.4	93	96.6	106	88.4	100	96.7	102	99.6	92.9	0	0	0.3	0	0	> 10	> 10	> 10	> 10	> 10
CCOc1cc(C=O)ccc1O [ethyl-vanillin]	98.6	108	102	97.5	99.3	97.4	102	96.2	101	99.9	106	92.8	107	95.1	91.6	117	99.5	96.2	103	97.1	99.3	92.5	98.5	78.4	101	0	0	0	0	0	> 10	> 10	> 10	> 10	> 10
CCc1cc2c(s1)-n1c(C)nnc1CN=C2c1ccccc1Cl [etizolam]	101	93.2	105	96.4	105	98.6	102	98.8	97.3	96.5	104	106	105	99.8	99.6	104	106	106	93.1	108	102	103	96.4	94.3	99.2	0	0	0	0	0	> 10	> 10	> 10	> 10	> 10
C=C1/C(=C\C=C2/CCC[C@]3(C)[C@@H]([C@H](C)CCCC(O)(C(F)(F)F)C(F)(F)F)CC[C@@H]23)C[C@@H](O)C[C@@H]1O [falecalcitriol]	122	99.3	95.7	99.7	98.2	100	94.9	98.5	92.7	93.1	92.4	96.2	85.8	94.9	104	98.1	97	94.1	102	92.9	96.2	96.1	90.6	95.6	92.6	0	0	0	0	0	> 10	> 10	> 10	> 10	> 10
CSc1ccc(OCc2ncc([N+](=O)[O-])n2C)cc1 [fexinidazole]	100	98.5	78.6	101	97.9	98.3	103	99.7	97.1	98.5	103	101	99.7	101	97	92.7	85.9	104	105	88.4	106	104	105	96.7	96.9	0	0	0	0	0	> 10	> 10	> 10	> 10	> 10
COc1ccc(Cl)cc1[C@]1(F)C(=O)Nc2cc(C(F)(F)F)ccc21 [flindokalner]	103	91.3	96.3	96.9	93.9	96.9	102	97.3	97.8	95.2	97.7	96.1	98.8	95.6	101	103	96.3	103	100	95.2	95.2	102	97.6	101	88.7	0	0	0	0	0	> 10	> 10	> 10	> 10	> 10
C#C[C@]1(O)CC[C@H]2[C@@H]3CCC4=CC(=O)CCC4=C3C=C[C@@]21CC [gestrinone]	106	93.3	99.9	97.8	94.1	94.7	95.8	91.6	99.9	93.9	96.6	97.2	101	89.3	101	96.7	103	101	103	90.6	107	116	86.1	102	101	0	0	0	0	0	> 10	> 10	> 10	> 10	> 10
N[C@H](C(=O)O)c1cc(O)no1 [ibotenic-acid]	93	93.7	105	93.6	94	97.8	97.5	96.6	102	92.4	102	101	99.1	99.4	100	91.3	104	95.1	93.3	93.9	92.9	94.2	93.6	97.2	96.5	0	0	0	0	0	> 10	> 10	> 10	> 10	> 10
CC[C@H](Nc1ncnc2[nH]cnc12)c1nc2cccc(F)c2c(=O)n1-c1ccccc1 [idelalisib]	106	104	85.8	103	89.5	91.2	101	94.1	95.6	93.9	99	95	96	87.5	89.5	104	94	108	97.3	88.5	95.4	98.1	96.6	101	83.7	0	0	0.2	0.1	0.3	> 10	> 10	> 10	> 10	> 10
CC1Cc2ccccc2N1NC(=O)c1ccc(Cl)c(S(N)(=O)=O)c1 (stereo not given) [indapamide]	105	110	105	96.7	96	101	96.9	97.9	96.7	98.3	100	100	103	97.4	92.9	95.5	95.7	94.2	99.5	97.1	94.8	96	94.3	94.8	93.3	0	0	0	0	0	> 10	> 10	> 10	> 10	> 10
O=[N+]([O-])O[C@H]1CO[C@H]2[C@@H]1OC[C@H]2O[N+](=O)[O-] [isosorbide-dinitrate]	99.4	101	101	101	107	100	96.1	100	99.8	99	94.2	102	92.5	97.1	108	90.6	117	102	113	101	99.1	95	102	90.5	98.7	0	0	0	0	0	> 10	> 10	> 10	> 10	> 10
COc1ccc(C(=O)NCc2ccc(OCCN(C)C)cc2)cc1OC [itopride]	102	103	97.1	103	91.2	102	101	99.1	103	95.1	99.9	102	99.8	101	96.7	97.4	96.2	87.2	90.3	107	99	96.5	108	100	89.5	0	0	0	0	0	> 10	> 10	> 10	> 10	> 10
O=C(C[S+]([O-])Cc1ccco1)NC/C=C\COc1cc(CN2CCCCC2)ccn1 (stereo not given) [lafutidine]	91.4	106	95.6	93.2	92.3	99.3	100	96.9	102	94.8	101	100	100	93.5	96.1	98.3	95.4	97.9	105	104	91.5	91.3	97.6	97	90.6	0	0	0	0	0	> 10	> 10	> 10	> 10	> 10
C[C@@H]1CN([C@H]2CC[C@](C#N)(c3ccc(F)cc3)CC2)CC[C@]1(C(=O)O)c1ccccc1 [levocabastine]	94.2	99.3	109	99.4	96.2	97.8	98	104	98	105	102	106	100	104	100	91.5	99.6	93.6	93.7	94.2	103	104	108	99.5	99.3	0	0	0	0	0	> 10	> 10	> 10	> 10	> 10
CCN(CC)C(=O)N[C@H]1C=C2c3cccc4[nH]cc(c34)C[C@H]2N(C)C1 [lisuride]	96	88.6	104	85	105	99.9	100	100	93.4	96	97.7	106	93.5	102	106	87.7	90	101	97.4	96.3	102	81.3	101	115	100	0	0	0	0	0	> 10	> 10	> 10	> 10	> 10
CCOC(=O)c1c(C)n(C)c2ccc(O)cc12 [mecarbinate]	101	101	98.6	90.6	106	97.1	102	94.6	100	107	99.7	98.4	100	92.9	109	107	104	105	97.8	107	95.1	98.9	96	103	105	0	0	0	0	0	> 10	> 10	> 10	> 10	> 10
CC(C)C(=O)OC[C@H]1O[C@@H](n2ccc(N)nc2=O)[C@](C)(F)[C@@H]1OC(=O)C(C)C [mericitabine]	110	88.1	108	109	106	97.1	94	98.6	97	97.4	92.5	97.6	99.3	93.6	91.5	89.3	99.3	94.1	102	91.6	93.9	86.9	96.3	91.1	102	0	0	0	0	0	> 10	> 10	> 10	> 10	> 10
Cn1ccnc1S [methimazole]	93.9	97.3	100	100	94.5	98	101	98.7	99.8	98.5	104	99.3	102	106	101	109	95.4	109	81.7	101	99.3	84.3	99.7	86.5	101	0	0	0	0	0	> 10	> 10	> 10	> 10	> 10
C[C@H]1C[C@@H]2[C@H]([C@@H](O)C[C@@]3(C)[C@H]2CC[C@]3(O)C(=O)COC(=O)CCC(=O)O)[C@@]2(C)C=CC(=O)C=C12 [methylprednisolone-sodium-succinate]	108	99	88.8	91.2	122	99.2	93.8	95	92.5	93.9	100	103	101	96	98.2	98.2	101	89.6	103	91.2	104	94.6	98.3	99.6	92.5	0	0	0	0	0	> 10	> 10	> 10	> 10	> 10
C[C@](N)(Cc1ccc(O)cc1)C(=O)O [metirosine]	112	113	106	97.3	99.5	101	96	101	96	99.5	95.8	94.8	95.1	95.9	96.4	86.6	97.3	96.4	97.1	91.4	97.7	96.9	93.5	88.1	94.8	0	0	0	0	0	> 10	> 10	> 10	> 10	> 10
